Assay results taken from patent US7432296B2, “Pharmaceutical formulations containing substituted 2-aryl-aminoacetic acid compounds and/or substituted 2-heteroaryl-aminoacetic acid compounds” (Gruenenthal GmbH, priority 2003, dated 2008).
Where a name gives a salt, the structure may show the parent alone.

Experiments:
[1] = biological target: T1, glycine binding site of the NMDA receptor channel (Rattus norvegicus, UniProt P35439); experiment: Receptor binding study (glycineB binding site of the NMDA receptor channel), displacement of (3H)-MDL 105.519; details: 10 μM of compound, rat brain membrane homogenate (cortex and hippocampus); for inhibition at 10 µM: read-out: Inhibition % (percentage fraction of bound radioactive ligand displaced from its specific binding)
T1 construct: from tissue; host or cells: rat brain cortex and hippocampus membrane homogenate (male Wistar rats)
Method: (a) Receptor Binding Study (GlycineB Binding Site of the NMDA Receptor Channel)
The affinity of the compounds of the general formula I used according to the invention for the glycine binding site of the NMDA receptor channel is determined using brain membrane homogenates (homogenate of cortex and hippocampus area from the brain of male rats, Wistar strain), as for example described in B. M. Baron, B. W. Siegel, B. L. Harrison, R. S. Gross, C. […] The corresponding literature description is hereby introduced as a reference and is deemed to be part of the disclosure.
To this end, the cortex and hippocampus are dissected out of freshly harvested rat brains and homogenised with ice cooling in 5 mmol/l of TRIS-acetate buffer, 0.32 mol/l of sucrose, pH 7.4 (10 ml/g fresh weight) using a Potter homogeniser (Braun/Melsungen, 10 piston strokes at 500 rpm) and then centrifuged for 10 minutes at 1,000 g and 4° C. The first supernatant is collected and the sediment again homogenised with ice cooling with 5 mmol/l of tris-acetate buffer, 0.32 mol/l of sucrose, pH 7.4 (5 ml/g of original fresh weight) with the Potter homogeniser (10 piston strokes at 500 rpm) and centrifuged for 10 minutes at 1,000 g and 4° C. The resultant supernatant is combined with the supernatant from the first centrifugation and centrifuged at 17.000 g for 20 minutes at 4° C. The supernatant after this centrifugation is discarded and the membrane sediment resuspended with 5 mmol/l of TRIS-acetate buffer, pH 8.0 (20 ml/g of original fresh weight) and homogenised with 10 piston strokes at 500 rpm.
The membrane homogenate is then incubated for 1 hour at 4° C. and centrifuged for 30 minutes at 50,000 g and 4° C. The supernatant is discarded and the centrifuge tubes containing the membrane sediment are sealed with Parafilm and frozen for 24 hours at −20° C. On the following day, the membrane sediment is thawed and resuspended with ice-cold 5 mmol/l TRIS-acetate buffer, 0,1% saponin (wt./vol.), pH 7.0 (10 ml/g of original fresh weight) and homogenised with 10 piston strokes at 500 rpm and then centrifuged for 20 minutes at 50.000 g and 4° C. The resultant supernatant is discarded and the sediment resuspended in a small volume with 5 mmol/l of TRIS-acetate buffer, pH 7.0 (approx. 2 ml/g of original fresh weight) and again homogenised with 10 piston strokes at 500 rpm. After determination of the protein content, the membrane homogenate is adjusted with 5 mmol/l TRIS-acetate buffer, pH 7.0, to a protein concentration of 10 mg of protein/ml and frozen in aliquots until used for testing.
The receptor binding test is performed by thawing aliquots, diluting them 1:10 with 5 mmol/l TRIS-acetate buffer, pH 7.0, homogenising them with ice-cooling with 10 piston strokes at 500 rpm with the Potter homogeniser (10 piston strokes at 500 rpm) and centrifuging them for 60 minutes at 55,000 g at 4° C. The supernatant is decanted and the membrane sediment adjusted with ice-cold 50 mmol/l TRIS-acetate buffer, pH 7.0, to a protein concentration of 1 mg/ml and again homogenised with 10 piston strokes at 500 rpm and kept in suspension in an ice bath with stirring on a magnetic stirrer. This membrane homogenate is used in the receptor binding test in a quantity of 100 µl per 1 ml batch (0.1 mg of protein/ml in the final batch). […] The level of nonspecific binding is determined in the presence of 1 mmol/l of glycine.
In further batches, the compounds used according to the invention are added in concentration series and the displacement of the radioactive ligand from its specific binding at the glycine-binding site of the NMDA receptor channel is determined. Each of the triplicate batches is incubated for 120 minutes at 4° C. and then harvested by filtration through glass fibre filter mats (GF/B) in order to determine the radioactivity bound to the membrane homogenate.

[2] = tested on: formaldehyde-induced nociception; experiment: Formaldehyde test (mouse), second (late) phase; assay type: in vivo; details: male NMRI mice, percentage change of the control
Method: (b) Formaldehyde Test (Mouse)
The investigations for determining the antinociceptive action of the substituted 2-arylaminoacetic acid compounds and/or substituted 2-heteroarylaminoacetic acid compounds of the above general formula I used according to the invention are carried out by the formaldehyde test on male albino mice (NMRI, 25-35 g, Iffa, Credo, Belgium).
In the formaldehyde test, a distinction is drawn between the first (early) phase (0-15 min after formaldehyde injection) and the second (late) phase (15-60 min after formaldehyde injection) (D. Dubuisson et al., Pain, vol. 4, pp. 161-174 (1977)). The early phase, being a direct response to the formaldehyde injection, is considered to be a model of acute pain, while the late phase is considered to be a model of persistent (chronic) pain (T. J. Coderre et al., Pain, vol. 52, pp. 259-285 (1993)). The corresponding literature descriptions are hereby introduced as a reference and are deemed to be part of the disclosure. […]
For the investigation period in the second (late) phase of the formaldehyde test, nociceptive behaviour is continuously recorded by observing the animals. […] On the basis of the quantification of the pain behaviour, action in the formaldehyde test is determined as a percentage change of the control. […]

Row | Compound | inhibition at 10 µM [1] | further results
1 | CSc1ccc(C(Nc2cc(Cl)cc(Cl)c2)C(=O)O)cc1 (centres unmarked) [Example 6, (3,5-Dichlorophenylamino)-(4-methylsulfanylphenyl)acetic acid] | – | Inhibition % (percentage fraction of bound radioactive ligand displaced from its specific binding) [1]: 87%; Inhibition (at dose) ([2]; at 46.4 mg/kg): 31% (at 46.4 mg/kg)
2 | O=C(O)C(Nc1cc(Cl)cc(Cl)c1)c1cccc2c1sc1ccccc12 (centres unmarked) [Example 2, (Dibenzothiophen-4-yl)-(3,5-dichlorophenylamino)acetic acid] | 33% | –
3 | O=C(O)C(Nc1cc(Cl)cc(Cl)c1)c1cccc2c1Oc1ccccc1S2 (centres unmarked) [Example 10, (3,5-Dichlorophenylamino)-(phenoxathiin-4-yl)acetic acid, sodium salt] | 38% | –

The next lines start with results.

Row | inhibition at 10 µM [1] | Compound | further results
4 | 39% | CSc1ccccc1C(Nc1cc(Cl)cc(Cl)c1)C(=O)[O-].[Na+] (centres unmarked) [Example 12, (3,5-Dichlorophenylamino)-(2-methylsulfanylphenyl)acetic acid, sodium salt] | Inhibition (at dose) ([2]; at 31.6 mg/kg): 66% (at 31.6 mg/kg)
5 | 25% | O=C(O)C(Nc1cc(Cl)cc(Cl)c1)c1cccc2c1Sc1ccccc1S2 (centres unmarked) [Example 11, (3,5-Dichlorophenylamino)-(thianthren-1-yl)acetic acid, sodium salt] | –
6 | 83% | CSc1ccc(C(Nc2cc(Cl)cc(Cl)c2)C(=O)O)cc1 (centres unmarked) [Example 13, (3,5-Dichlorophenylamino)-(4-methylsulfanylphenyl)acetic acid, sodium salt] | –
